Measured values published in patent publication US11731943B2, “Therapeutic compounds, compositions and methods of use thereof” (priority 2016, dated 2023).

Key:
[1] = biological target: isolated recombinant JAK1 kinase domain (Homo sapiens (Human), UniProt P23458); experiment: JAK1 enzyme assay (Caliper LabChip, Ki); type: biochemical; conditions: read-out: JAK1 Ki
Outline: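 Recombinant human JAK1 kinase domain phosphorylating an N-terminally 5-carboxyfluorescein-labelled JAK3-derived peptide, 30 min at 22 °C, stopped with EDTA (50 mM final). Phosphorylated fraction of total peptide read by Caliper LabChip mobility shift; Ki from Morrison tight-binding fit corrected for ATP competition (Ki=Ki,app/(1+[ATP]/Km,app)).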

[2] = biological target: isolated recombinant JAK2 kinase domain (Homo sapiens (Human), UniProt O60674); experiment: JAK2 enzyme assay (Caliper LabChip, Ki); type: biochemical
Outline: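 Recombinant human JAK1 or JAK2 kinase domain phosphorylating a 5-carboxyfluorescein-labelled JAK3-derived peptide; 30 min at 22 °C, stopped with EDTA (50 mM final). Phosphorylated product measured as a fraction of total peptide by Caliper LabChip mobility shift.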

[3] = tested on: JAK1-dependent STAT6 phosphorylation downstream of IL-13 stimulation in BEAS-2B human bronchial epithelial cells; experiment: JAK1 pathway assay in BEAS-2B cells (IL-13-pSTAT6, MSD); type: cell-based; conditions: Homo sapiens, BEAS-2B, BEAS-2B cells, IL-13 stimulation; read-out: IL-13 p-STAT6 BEAS-2B IC50

Chain of isolated recombinant JAK2 kinase domain (O60674 849-1124): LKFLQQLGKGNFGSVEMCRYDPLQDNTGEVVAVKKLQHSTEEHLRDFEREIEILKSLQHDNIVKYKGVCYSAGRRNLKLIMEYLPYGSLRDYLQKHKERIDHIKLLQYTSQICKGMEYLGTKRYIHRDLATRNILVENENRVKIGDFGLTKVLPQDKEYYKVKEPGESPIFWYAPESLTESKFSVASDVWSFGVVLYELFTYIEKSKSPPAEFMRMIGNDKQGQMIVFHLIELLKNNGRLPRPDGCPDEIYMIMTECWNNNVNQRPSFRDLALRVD
Chain of isolated recombinant JAK1 kinase domain (P23458 875-1153): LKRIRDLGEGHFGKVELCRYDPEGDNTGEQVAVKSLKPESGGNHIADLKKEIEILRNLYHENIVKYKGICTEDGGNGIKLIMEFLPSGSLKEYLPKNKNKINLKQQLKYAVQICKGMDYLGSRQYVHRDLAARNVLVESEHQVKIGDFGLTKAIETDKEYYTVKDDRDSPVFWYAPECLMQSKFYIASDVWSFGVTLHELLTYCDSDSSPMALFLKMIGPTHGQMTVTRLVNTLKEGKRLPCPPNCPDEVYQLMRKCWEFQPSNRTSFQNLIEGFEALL

SMILES	Ki [1]	Ki [2]	IC50 [3]
COC(=O)Nc1nn(C2(CC#N)CCC(N3CC(F)(c4ccccc4)C3)CC2)cc1C(N)=O (stereo not drawn) [Example 243, methyl N-[4-carbamoyl-1-[1-(cyanomethyl)-4-(3-fluoro-3-phenyl-azetidin-1-yl)cyclohexyl]pyrazol-3-yl]carbamate]	2.7 nM	14 nM	100 nM
COC(=O)Nc1nn(C2(CC#N)CCN(Cc3ccc(-c4ccoc4)c(O)c3)CC2F)cc1C(N)=O (stereo not drawn) [Example 244, methyl N-[4-carbamoyl-1-[4-(cyanomethyl)-3-fluoro-1-[[4-(3-furyl)-3-hydroxy-phenyl]methyl]-4-piperidyl]pyrazol-3-yl]carbamate]	0.2 nM	0.37 nM	67 nM
N#CCC1(n2cc(C(N)=O)c(NC(=O)C3CC3)n2)CCC(Nc2ccc(-c3ccccc3)cc2)CC1 (stereo not drawn) [Example 245, 1-[1-(cyanomethyl)-4-(4-phenylanilino)cyclohexyl]-3-(cyclopropanecarbonylamino) pyrazole-4-carboxamide]	0.23 nM	0.92 nM	14 nM
COC(=O)Nc1nn(C2(CC#N)CCN(Cc3ccc(-c4ccc(C)o4)cc3)CC2F)cc1C(N)=O (stereo not drawn) [Example 246, methyl N-[4-carbamoyl-1-[4-(cyanomethyl)-3-fluoro-1-[[4-(5-methyl-2-furyl)phenyl]methyl]-4-piperidyl]pyrazol-3-yl]carbamate]	0.35 nM	0.52 nM	19 nM
COC(=O)Nc1nn(C2(CC#N)CCN(Cc3ccc(-c4ccc(C)o4)c(O)c3)CC2F)cc1C(N)=O (stereo not drawn) [Example 247, methyl N-[4-carbamoyl-1-[4-(cyanomethyl)-3-fluoro-1-[[3-hydroxy-4-(5-methyl-2-furyl)phenyl]methyl]-4-piperidyl]pyrazol-3-yl]carbamate]	0.35 nM	0.43 nM	26 nM
COC(=O)Nc1nn(C2(CC#N)CCN(Cc3c(F)cc(-c4ccccc4)c(O)c3F)CC2F)cc1C(N)=O (stereo not drawn) [Example 248, Methyl N-[4-carbamoyl-1-[4-(cyanomethyl)-1-[(2,6-difluoro-3-hydroxy-4-phenylphenyl)methyl]-3-fluoropiperidin-4-yl]-1H-pyrazol-3-yl]carbamate]	0.28 nM	0.25 nM	30 nM
COC(=O)Nc1nn(C2(CC#N)CCN(Cc3ccc(-c4csc(C)n4)cc3)CC2F)cc1C(N)=O (stereo not drawn) [Example 249, methyl N-[4-carbamoyl-1-[4-(cyanomethyl)-3-fluoro-1-[[4-(2-methylthiazol-4-yl)phenyl]methyl]-4-piperidyl]pyrazol-3-yl]carbamate]	0.52 nM	0.56 nM	26 nM
Cc1c(CN2CCC(CC#N)(n3cc(C(N)=O)c(NC(=O)C4CC4C#N)n3)C(F)C2)ccc(-c2ccccc2)c1O (stereo not drawn) [Example 250, 3-[(2-cyanocyclopropanecarbonyl)amino]-1-[4-(cyanomethyl)-3-fluoro-1-[(3-hydroxy-2-methyl-4-phenyl-phenyl)methyl]-4-piperidyl]pyrazole-4-carboxamide; formic acid]	0.31 nM	0.84 nM	80 nM
COC(=O)Nc1nn(C2(CC#N)CCN(Cc3cnc(-c4ccccc4)cc3F)CC2F)cc1C(N)=O (stereo not drawn) [Example 251, methyl N-[4-carbamoyl-1-[4-(cyanomethyl)-3-fluoro-1-[(4-fluoro-6-phenyl-3-pyridyl)methyl]-4-piperidyl]pyrazol-3-yl]carbamate]	0.34 nM	0.3 nM	30 nM
CCc1nc(-c2ccc(CN3CCC(CC#N)(n4cc(C(N)=O)c(NC(=O)OC)n4)C(F)C3)cc2)cs1 (stereo not drawn) [Example 252, methyl N-[4-carbamoyl-1-[4-(cyanomethyl)-1-[[4-(2-ethylthiazol-4-yl)phenyl]methyl]-3-fluoro-4-piperidyl]pyrazol-3-yl]carbamate]	0.3 nM	0.52 nM	22 nM
Cc1cnn(-c2ccc(CN3CCC(CC#N)(n4cc(C(N)=O)c(NC(=O)C5CC5)n4)CC3)cc2)n1 [Example 253, 1-[4-(cyanomethyl)-1-[[4-(4-methyltriazol-2-yl)phenyl]methyl]-4-piperidyl]-3-(cyclopropanecarbonylamino) pyrazole-4-carboxamide]	1 nM	5.6 nM	56 nM
C#CC1CC1C(=O)Nc1nn(C2(CC#N)CCN(Cc3ccc(-c4ccccc4)cc3)CC2F)cc1C(N)=O (stereo not drawn) [Example 254, 1-[4-(cyanomethyl)-3-fluoro-1-[(4-phenylphenyl)methyl]-4-piperidyl]-3-[(2-ethynylcyclopropanecarbonyl)amino]pyrazole-4-carboxamide]	0.43 nM	0.82 nM	43 nM
N#CCC1(n2cc(C(N)=O)c(NC(=O)C3CC3)n2)CCN(Cc2ccc(-c3ncco3)cc2)CC1F (stereo not drawn) [Example 255, 1-[4-(cyanomethyl)-3-fluoro-1-[(4-oxazol-2-ylphenyl)methyl]-4-piperidyl]-3-(cyclopropanecarbonylamino) pyrazole-4-carboxamide]	1.2 nM	0.96 nM	70 nM
COC(=O)Nc1nn(C2(CC#N)CCN(Cc3cc(O)c(-c4ccc(C)o4)cc3F)CC2F)cc1C(N)=O (stereo not drawn) [Example 256, methyl N-[4-carbamoyl-1-[4-(cyanomethyl)-3-fluoro-1-[[2-fluoro-5-hydroxy-4-(5-methyl-2-furyl)phenyl]methyl]-4-piperidyl]pyrazol-3-yl]carbamate]	0.15 nM	0.89 nM	47 nM
COC(=O)Nc1nn(C2(CC#N)CCN(Cc3ccc(C4=CCCCC4)cc3)CC2F)cc1C(N)=O (stereo not drawn) [Example 257, methyl N-[4-carbamoyl-1-[4-(cyanomethyl)-1-[[4-(cyclohexen-1-yl)phenyl]methyl]-3-fluoro-4-piperidyl]pyrazol-3-yl]carbamate]	0.73 nM	1.3 nM	52 nM
COC(=O)Nc1nn(C2(CC#N)CCN(Cc3ccc(C4=CCCCC4)c(O)c3)CC2F)cc1C(N)=O (stereo not drawn) [Example 258, methyl N-[4-carbamoyl-1-[4-(cyanomethyl)-1-[[4-(cyclohexen-1-yl)-3-hydroxy-phenyl]methyl]-3-fluoro-4-piperidyl]pyrazol-3-yl]carbamate]	0.34 nM	0.29 nM	34 nM
C=C(C)c1ccc(CN2CCC(CC#N)(n3cc(C(N)=O)c(NC(=O)C4CC4)n3)C(F)C2)cc1 (stereo not drawn) [Example 259, 1-[4-(cyanomethyl)-3-fluoro-1-[(4-isopropenylphenyl)methyl]-4-piperidyl]-3-(cyclopropanecarbonylamino) pyrazole-4-carboxamide]	0.84 nM	1.8 nM	50 nM
C#Cc1ccc(CN2CCC(CC#N)(n3cc(C(N)=O)c(NC(=O)C4CC4)n3)C(F)C2)cc1 (stereo not drawn) [Example 260, 1-[4-(cyanomethyl)-1-[(4-ethynylphenyl)methyl]-3-fluoro-4-piperidyl]-3-(cyclopropanecarbonylamino) pyrazole-4-carboxamide]	0.25 nM	0.35 nM	32 nM
N#CCC1(n2cc(C(N)=O)c(NC(=O)C3CC3)n2)CCN(Cc2ccc(C3=CCCC3)cc2)CC1F (stereo not drawn) [Example 261, 1-[4-(cyanomethyl)-1-[[4-(cyclopenten-1-yl)phenyl]methyl]-3-fluoro-4-piperidyl]-3-(cyclopropanecarbonylamino) pyrazole-4-carboxamide]	0.56 nM	0.82 nM	21 nM
COC(=O)Nc1nn(C2(CC#N)CCN(Cc3ccc(-c4ccccc4)c(O)c3F)CC2F)cc1C(N)=O (stereo not drawn) [Example 263, methyl N-[4-carbamoyl-1-[4-(cyanomethyl)-3-fluoro-1-[(2-fluoro-3-hydroxy-4-phenyl-phenyl)methyl]-4-piperidyl]pyrazol-3-yl]carbamate]	0.3 nM	0.24 nM	25 nM
COC(=O)Nc1nn(C2(CC#N)CCN(Cc3ccc(C4=CCCCC4)nc3F)CC2F)cc1C(N)=O (stereo not drawn) [Example 264, methyl N-[4-carbamoyl-1-[4-(cyanomethyl)-1-[[6-(cyclohexen-1-yl)-2-fluoro-3-pyridyl]methyl]-3-fluoro-4-piperidyl]pyrazol-3-yl]carbamate]	0.79 nM	1.4 nM	88 nM
CCc1ccc(C2(F)CN(C3CCC(CC#N)(n4cc(C(N)=O)c(NC(=O)C5CC5)n4)CC3)C2)cc1 (stereo not drawn) [Example 265, 1-[1-(cyanomethyl)-4-[3-(4-ethylphenyl)-3-fluoro-azetidin-1-yl]cyclohexyl]-3-(cyclopropanecarbonylamino) pyrazole-4-carboxamide]	1.1 nM	4.2 nM	88 nM
COC(=O)Nc1nn(C2(CC#N)CCC(Nc3ccc(-c4ccco4)cc3)CC2)cc1C(N)=O (stereo not drawn) [Example 266, methyl N-[4-carbamoyl-1-[1-(cyanomethyl)-4-[4-(2-furyl)anilino]cyclohexyl]pyrazol-3-yl]carbamate]	0.77 nM	5 nM	57 nM
COC(=O)Nc1nn(C2(CC#N)CCN(Cc3ccc(-n4ncc(C)n4)cc3)CC2F)cc1C(N)=O (stereo not drawn) [Example 267, methyl N-[4-carbamoyl-1-[4-(cyanomethyl)-3-fluoro-1-[[4-(4-methyltriazol-2-yl)phenyl]methyl]-4-piperidyl]pyrazol-3-yl]carbamate]	0.86 nM	0.84 nM	51 nM
